The values that follow come from ChEMBL document CHEMBL1201862, “PubChem BioAssay data set” (2004).

Among the test systems are XF498; DLD-1; KM-20L2; SNB-78; RXF 631; DMS-114; MDA-N; BT-549; PC-3.
Holding throughout (test): growth of human tumour cells (NCI), 48 h

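Assay format: 96-well plates, 48-hour exposure. GI50 is the concentration that inhibits growth by half.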 The source made the active and inactive calls. Rule as the data show it: active = GI50 up to about 1.1 µM and inactive = higher. Some results are limits rather than exact numbers.

For the compound `O=C(CO)CC(=O)C(=O)Nc1cccc(C(F)(F)F)c1`, the GI50 with XF498, in the assay on DLD-1 and in the assay with KM-20L2 was > 100 µM (inactive) throughout.

Regarding `Nc1nc2[nH]cnc2c(=O)[nH]1`, the GI50 in the assay with XF498, in the assay with DLD-1, in the assay with SNB-78 and in the assay with KM-20L2 was > 100 µM (inactive) in each case.

With `CC1=C(O)C(=O)C2C(=O)C1C(C)C2c1ccc(Cl)cc1` (centres undefined), the GI50 with RXF 631, in the assay with XF498, with DLD-1 and in the assay on SNB-78 was > 100 µM (inactive) each time.

`COC(=O)CCC(=O)Nc1cccc(C(F)(F)F)c1`: the GI50 in the assay on XF498, with DLD-1, with SNB-78, in the assay with DMS-114 and in the assay on KM-20L2 was > 100 µM (inactive) throughout.

For `S=C1SCC2CCCN12` (centres undefined), the GI50 in the assay with RXF 631, in the assay on DLD-1, in the assay on SNB-78, in the assay on DMS-114 and in the assay with KM-20L2 was > 100 µM (inactive) in each case.

`COc1ccc(CN(CCN(C)C)c2ccccn2)cc1.Cn1c(=O)c2[nH]c(Br)nc2n(C)c1=O`: the GI50 with XF498, in the assay with DLD-1, with SNB-78, with DMS-114 and in the assay on KM-20L2 was > 100 µM (inactive) each time.

Turning to `Cn1cnc([N+](=O)[O-])c1Sc1nc2ccccc2o1`, the GI50 is 4.05 µM (inactive) with RXF 631; 6.44 µM (inactive) with XF498; 4.13 µM (inactive) in the assay on DLD-1; 13.1 µM (inactive) in the assay on SNB-78; 2.14 µM (inactive) in the assay with DMS-114; 4.66 µM (inactive) in the assay on KM-20L2.

For the compound `CN1CCc2c1nc(-c1ccc(Cl)cc1)c1c2N(C)CC1`, the GI50 in the assay on XF498 is 10.1 µM (inactive); in the assay with DLD-1, 7.66 µM (inactive); in the assay with SNB-78, 28.7 µM (inactive); with DMS-114, 10.8 µM (inactive); in the assay on KM-20L2, 0.514 µM (active).

Regarding `O=C1CCC2(c3ccc(F)cc3)Nc3ncccc3N12` (centres undefined), the GI50 with XF498, in the assay on DLD-1, in the assay with SNB-78 and in the assay with KM-20L2 was > 100 µM (inactive) each time.

For the compound `O=C1OC(c2ccccc2)=N/C1=C/NC(Cc1c[nH]cn1)C(=O)O` (centres undefined), the GI50 in the assay on XF498, in the assay with DLD-1, with SNB-78, with DMS-114 and with KM-20L2 was > 100 µM (inactive) each time.

For the compound `COC(=O)[C@@]1(C(C)CC(=O)O)CCCCC1=O` (some centres undefined), the GI50 in the assay on XF498 is > 100 µM (inactive); in the assay with DLD-1 it was > 100 µM (inactive); in the assay with SNB-78 it was > 100 µM (inactive); in the assay on DMS-114, 82.8 µM (inactive); in the assay on KM-20L2, > 100 µM (inactive).

Turning to `COc1ccc2c(c1)c(Cc1c(C)n(C)c3ccc(OC)cc13)c(C)n2C`, the GI50 in the assay with XF498, with DLD-1, with SNB-78, with DMS-114 and in the assay with KM-20L2 was > 100 µM (inactive) each time.

Turning to `CCOC(=O)NC(=O)c1cn(CCOC(=O)NCCCCCCNC(=O)OCCn2cc(C(=O)NC(=O)OCC)c(=O)[nH]c2=O)c(=O)[nH]c1=O`, the GI50 in the assay on DLD-1, in the assay with SNB-78, with DMS-114 and with KM-20L2 was > 100 µM (inactive) in each case.

In the case of `Cc1cc(=O)cc2sc3c(C)cccc3nc1-2`, the GI50 in the assay with RXF 631 was > 100 µM (inactive); in the assay on DLD-1, 22.1 µM (inactive); in the assay with SNB-78 it was 53.6 µM (inactive).

On to `OCC12C3C4C1C1C2C3C41CO` (centres undefined), for which the GI50 with RXF 631, in the assay with XF498, in the assay with DLD-1, in the assay with SNB-78, in the assay on DMS-114 and in the assay on KM-20L2 was > 100 µM (inactive) in each case.

For the compound `CCCCCCC(=O)C/C(=N/NC(N)=S)C(=O)NC1C2CC3CC(C2)CC1C3` (centres undefined), the GI50 with DLD-1, in the assay on SNB-78 and in the assay with KM-20L2 was > 100 µM (inactive) each time.

On to `COc1ccc(/C(Cl)=C(\C=O)c2ccc([N+](=O)[O-])cc2)cc1`, for which the GI50 with RXF 631 is 24.2 µM (inactive); with XF498, 14.8 µM (inactive); with DLD-1 it was 16.7 µM (inactive); in the assay on SNB-78 it was 5.6 µM (inactive); with DMS-114, 17.3 µM (inactive); with KM-20L2, 15 µM (inactive).

Consider `COC12C=C(C)C(CC1)CC2C(=O)O` (centres undefined), for which the GI50 in the assay on XF498, in the assay with DLD-1, with SNB-78 and with KM-20L2 was > 100 µM (inactive) each time.

As for `CCCCCC/C=C1\CCC(CN2CCOCC2)C1=O` (centres undefined), the GI50 in the assay with XF498 was 16.1 µM (inactive); in the assay with DLD-1, 10.5 µM (inactive); with SNB-78, 21.8 µM (inactive); with DMS-114 it was 17.3 µM (inactive); with KM-20L2, 20.2 µM (inactive).

As to `Cc1ccc(S(=O)(=O)N2CCN(C=S)CC2)cc1`, the GI50 in the assay with RXF 631, with DLD-1, with SNB-78, in the assay on DMS-114 and with KM-20L2 was > 100 µM (inactive) throughout.

In the case of `Cc1cc(C)c(C(=O)OC(c2ccccc2)C(c2ccccc2)N2CCOCC2)c(C)c1` (centres undefined), the GI50 in the assay with RXF 631, in the assay on XF498, in the assay with DLD-1, with SNB-78, in the assay with DMS-114 and in the assay on KM-20L2 was > 100 µM (inactive) in each case.

`CC12N=NNC1C(=O)NC2=O` (centres undefined): the GI50 with DLD-1, with SNB-78, in the assay with DMS-114 and in the assay with KM-20L2 was > 100 µM (inactive) throughout.

As for `CN1C(=O)C2C=CC1C1CCC2N(C)C1=O` (centres undefined), the GI50 in the assay with RXF 631, in the assay on DLD-1, in the assay on SNB-78 and with DMS-114 was > 100 µM (inactive) throughout.

With `O=c1c2ccccc2[nH]c2c(O)ccc(O)c12`, the GI50 in the assay on RXF 631 is 21.8 µM (inactive); in the assay with XF498, 16.8 µM (inactive); with DLD-1 it was > 10 µM (inactive); with SNB-78 it was 19 µM (inactive); in the assay with DMS-114, 17.9 µM (inactive); with KM-20L2, 78.9 µM (inactive).

Regarding `CC(C)(C)[Si](C)(C)OC1C(=O)C[C@H]2CCCC[C@@H]12` (some centres undefined), the GI50 with XF498, in the assay with DLD-1, with SNB-78, with DMS-114 and with KM-20L2 was > 100 µM (inactive) in each case.

For the compound `O=C1/C(=C/c2ccc(Cl)cc2)CCC1CCN1CCOCC1` (centres undefined), the GI50 in the assay on RXF 631 was 46.6 µM (inactive); in the assay on XF498 it was 56.6 µM (inactive); with DLD-1, 61 µM (inactive); with SNB-78, > 100 µM (inactive); in the assay on DMS-114, 28.7 µM (inactive); in the assay on KM-20L2, 43.8 µM (inactive).

Turning to `Oc1cccc2ccc(Br)nc12`, the figures for the GI50 with MDA-N, in the assay with BT-549 and in the assay on PC-3 were > 100 µM (inactive), > 100 µM (inactive) and 86.5 µM (inactive), respectively.

On to `CCN(CC)c1ncnc2c1ncn2CCNC(CO)(CO)CO`, for which the GI50 in the assay with MDA-N, in the assay with BT-549 and with PC-3 was > 100 µM (inactive) in each case.

Consider `O=C(CCc1cc(-c2ccco2)n(-c2ccc([N+](=O)[O-])cc2[N+](=O)[O-])n1)Nc1ccccc1`, for which the GI50 in the assay with RXF 631, in the assay on XF498, in the assay with DLD-1, with SNB-78, in the assay on DMS-114 and in the assay on KM-20L2 was > 100 µM (inactive) throughout.

For the compound `COc1cccc2c1C(=O)c1c(O)c3c(c(O)c1C2=O)C[C@@](O)(C(=O)CO)CC3OC1CC(NCCOCC(OC(C)=O)OC(C)=O)C(O)C(C)O1` (some centres undefined), the GI50 in the assay on XF498 is < 0.01 µM (active); in the assay with DLD-1, 0.01 µM (active); with DMS-114, < 0.01 µM (active); in the assay with KM-20L2 it was < 0.01 µM (active).

As to `Cn1c(=O)cc2[nH]c3ccccc3n2c1=O`, the GI50 in the assay with RXF 631 was 29.6 µM (inactive); with DLD-1 it was 40.2 µM (inactive); in the assay on SNB-78, 86.5 µM (inactive); in the assay with DMS-114, > 100 µM (inactive); in the assay with KM-20L2 it was 77.4 µM (inactive).

`CNc1ccc(Cl)cc1C(=O)N1CCC[C@H]1CO`: the GI50 in the assay with MDA-N, in the assay with BT-549 and in the assay with PC-3 was > 100 µM (inactive) throughout.

On to `C[C@@]1(CO)[C@H](O)CC[C@@]2(C)[C@H]1CC[C@H]1C[C@@H]3C[C@@]12CC[C@@]3(O)COC(=O)CN`, for which the GI50 in the assay with MDA-N is 16.9 µM (inactive); in the assay on BT-549, 42.3 µM (inactive); in the assay with PC-3 it was 21.3 µM (inactive).

As for `COc1ccc(-c2nc(SCC(=O)N/N=C/c3ccc([N+](=O)[O-])cc3)[nH]c2-c2ccc(OC)cc2)cc1`, the GI50 is 3.16 µM (inactive) in the assay with MDA-N, 19.1 µM (inactive) in the assay with BT-549 and 6.49 µM (inactive) in the assay with PC-3.

Consider `Cc1cc(=O)n(-c2cc3cccccc-3n2)[nH]1`, for which the GI50 in the assay on XF498 is 4.03 µM (inactive); with DLD-1, 5.61 µM (inactive); in the assay on DMS-114, 2.38 µM (inactive); with KM-20L2, 38.4 µM (inactive).

`O=C(CC1Sc2ccccc2NC1=O)Nc1cccc(Cl)c1` (centres undefined): the GI50 with XF498 is 28 µM (inactive); in the assay on DLD-1, 48.4 µM (inactive); with SNB-78, 47.9 µM (inactive); in the assay with DMS-114, 34.2 µM (inactive); in the assay with KM-20L2 it was 38.2 µM (inactive).

As for `NC1CCC[C@H]1O` (some centres undefined), the GI50 with RXF 631, in the assay on XF498, in the assay with DLD-1, in the assay on SNB-78, in the assay on DMS-114 and with KM-20L2 was > 100 µM (inactive) each time.

On to `O=C(Nc1sccc1S(=O)(=O)c1ccccc1)c1cccnc1`, for which the GI50 in the assay on MDA-N is 1.02 µM (active); in the assay with BT-549, > 37.1 µM (inactive); in the assay on PC-3, 37.6 µM (inactive).

Consider `CCOC(=O)C(SCCO)C(C(=O)OCC)n1ccc(N)nc1=O` (centres undefined), for which the GI50 in the assay with MDA-N, with BT-549 and with PC-3 was > 100 µM (inactive) in each case.
